Measured values: patent publication US10538555B2, “Macrocyclic inhibitors of the PD-1/PD-L1 and CD80(B7-1)/PD-L1 protein/protein interactions” (BRISTOL-MYERS SQUIBB COMPANY, priority 2014, dated 2020)
*1 amine or outer side, *2 acyl side, *3 side chain or, on linkers, in order; H or OH if unused. Where a SMILES comes first, the peptide text is derived from it. Bridges are numbered along the chain shown (N, C = ends). [ ]: non-standard residue; d: D form. Trp(1-CH2COOH) = N[C@@H](Cc1cn(CC(=O)O)c2ccccc12)C(=O)O; NMeW = CN[C@@H](Cc1c[nH]c2ccccc12)C(=O)O; Bta = N[C@@H](Cc1csc2ccccc12)C(=O)O; Hyp = O=C(O)[C@@H]1C[C@@H](O)CN1; NMeE = CN[C@@H](CCC(=O)O)C(=O)O; NMeNle = CCCC[C@H](NC)C(=O)O; NMeA = CN[C@@H](C)C(=O)O; Dab = NCC[C@H](N)C(=O)O; Dap = NC[C@H](N)C(=O)O; CO = O=C([*:1])[*:2]

Biological target: T1, Human PD-L1/PD-1 (Homo sapiens, UniProt Q9NZQ7)
T1 construct: TVMV protease cleavage site (C); made in house; host or cells: HEK293T cells
Assay: HTRF Human PD-L1/PD-1 binding assay (PD-1-Ig/PD-L1-His)
Details: PD-L1-His 10 nM, PD-1-Ig 20 nM; class symbol; read-out: HTRF Human PD-L1/PD-1 Binding Assay IC50 Range
How it was run: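 Inhibitors were preincubated 15 min with human PD-L1(18-239)-His (10 nM final), then PD-1(25-167)-Ig (20 nM final) was added for 15 min in dPBS/0.1% BSA/0.05% Tween-20. Eu-cryptate anti-Ig (1 nM) and APC anti-His (20 nM) were added; 665/620 nm ratio read after 30 min.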

T1 sequence (Q9NZQ7 with tags, fused parts or gaps): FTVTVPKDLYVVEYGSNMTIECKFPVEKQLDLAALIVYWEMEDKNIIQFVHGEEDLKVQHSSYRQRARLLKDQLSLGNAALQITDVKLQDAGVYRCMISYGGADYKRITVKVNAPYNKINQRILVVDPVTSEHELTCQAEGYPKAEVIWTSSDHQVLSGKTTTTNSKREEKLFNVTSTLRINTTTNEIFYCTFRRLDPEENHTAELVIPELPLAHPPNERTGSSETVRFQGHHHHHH

Structure (SMILES)	IC50
CCCC[C@H]1C(=O)N(C)[C@@H](CCCC)C(=O)N[C@@H](CCC(=O)O)C(=O)N[C@H](C(=O)NCC(N)=O)CSCC(=O)N[C@@H](Cc2ccc(O)cc2)C(=O)N(C)[C@@H](C)C(=O)N[C@@H](CC(N)=O)C(=O)N2CCC[C@H]2C(=O)N[C@@H](Cc2c[nH]cn2)C(=O)N[C@@H](CCC(=O)O)C(=O)N2C[C@H](O)C[C@H]2C(=O)N[C@@H](Cc2c[nH]c3ccccc23)C(=O)N[C@@H](CO)C(=O)N[C@@H](Cc2c[nH]c3ccccc23)C(=O)N1C [Example 5150] ({CH2CO}-Y[NMeA]NPHE[Hyp]WSW[NMeNle][NMeNle]ECG-NH2; thioether N-14)	1 to 9.9 nM
CCCC[C@H]1C(=O)N[C@@H](CN)C(=O)N[C@H](C(=O)NCC(N)=O)CSCC(=O)N[C@@H](Cc2ccc(O)cc2)C(=O)N(C)[C@@H](C)C(=O)N[C@@H](CC(N)=O)C(=O)N2CCC[C@H]2C(=O)N[C@@H](Cc2c[nH]cn2)C(=O)N[C@@H](CCC(=O)O)C(=O)N2C[C@H](O)C[C@H]2C(=O)N[C@@H](Cc2c[nH]c3ccccc23)C(=O)N[C@@H](CCN)C(=O)N[C@@H](Cc2c[nH]c3ccccc23)C(=O)N(C)[C@@H](CCC(=O)O)C(=O)N1C [Example 5152] ({CH2CO}-Y[NMeA]NPHE[Hyp]W[Dab]W[NMeE][NMeNle][Dap]CG-NH2; thioether N-14)	10 to 99.9 nM
CCCC[C@H]1C(=O)N(C)[C@@H](CCCC)C(=O)N[C@@H](CC(C)C)C(=O)N[C@H](C(=O)NCC(N)=O)CSCC(=O)N[C@@H](Cc2ccc(O)cc2)C(=O)N(C)[C@@H](C)C(=O)N[C@@H](CC(=O)O)C(=O)N2CCC[C@H]2C(=O)N[C@@H](CN)C(=O)N[C@@H](CCC(N)=O)C(=O)N2C[C@H](O)C[C@H]2C(=O)N[C@@H](Cc2c[nH]c3ccccc23)C(=O)N[C@@H](CCN)C(=O)N[C@@H](Cc2cn(CC(=O)O)c3ccccc23)C(=O)N1C [Example 5153] ({CH2CO}-Y[NMeA]DP[Dap]Q[Hyp]W[Dab][Trp(1-CH2COOH)][NMeNle][NMeNle]LCG-NH2; thioether N-14)	1 to 9.9 nM
CCCC[C@H]1C(=O)N(C)[C@@H](CCCC)C(=O)N[C@@H](CNC(=O)O)C(=O)N[C@H](C(=O)NCC(N)=O)CSCC(=O)N[C@@H](Cc2ccc(O)cc2)C(=O)N(C)[C@@H](C)C(=O)N[C@@H](CC(=O)O)C(=O)N2CCC[C@H]2C(=O)N[C@@H](CN)C(=O)N[C@@H](CCC(=O)O)C(=O)N2C[C@H](O)C[C@H]2C(=O)N[C@@H](Cc2c[nH]c3ccccc23)C(=O)N[C@@H](CCC(=O)O)C(=O)N[C@@H](Cc2c[nH]c3ccccc23)C(=O)N1C [Example 5154] ({CH2CO}-Y[NMeA]DP[Dap]E[Hyp]WEW[NMeNle][NMeNle][Dap](CO)CG-NH2; thioether N-14)	10 to 99.9 nM
CCCC[C@H]1C(=O)N(C)[C@@H](CCCC)C(=O)N[C@@H](CCC(=O)O)C(=O)N[C@H](C(=O)NCC(N)=O)CSCC(=O)N[C@@H](Cc2ccc(O)cc2)C(=O)N(C)[C@@H](C)C(=O)N[C@@H](CC(=O)O)C(=O)N2CCC[C@H]2C(=O)N[C@@H](Cc2c[nH]cn2)C(=O)N[C@@H](CCC(N)=O)C(=O)N2C[C@H](O)C[C@H]2C(=O)N[C@@H](Cc2c[nH]c3ccccc23)C(=O)N[C@@H](CCC(=O)O)C(=O)N[C@@H](Cc2c[nH]c3ccccc23)C(=O)N1C [Example 5158] ({CH2CO}-Y[NMeA]DPHQ[Hyp]WEW[NMeNle][NMeNle]ECG-NH2; thioether N-14)	10 to 99.9 nM
CCCC[C@H]1C(=O)N(C)[C@@H](CCCC)C(=O)N[C@H](C)C(=O)N[C@H](C(=O)NCC(N)=O)CSCC(=O)N[C@@H](Cc2ccc(O)cc2)C(=O)N(C)[C@@H](C)C(=O)N[C@@H](CC(N)=O)C(=O)N2CCC[C@H]2C(=O)N[C@@H](Cc2c[nH]cn2)C(=O)N[C@@H](CCC(=O)O)C(=O)N2C[C@H](O)C[C@H]2C(=O)N[C@@H](Cc2c[nH]c3ccccc23)C(=O)N[C@@H](CCN)C(=O)N[C@@H](Cc2csc3ccccc23)C(=O)N1C [Example 5159] ({CH2CO}-Y[NMeA]NPHE[Hyp]W[Dab][Bta][NMeNle][NMeNle][dA]CG-NH2; thioether N-14)	1 to 9.9 nM
CCCC[C@H]1C(=O)N[C@@H](CN)C(=O)N[C@H](C(=O)NCC(N)=O)CSCC(=O)N[C@@H](Cc2ccc(O)cc2)C(=O)N(C)[C@@H](C)C(=O)N[C@@H](CC(N)=O)C(=O)N2CCC[C@H]2C(=O)N[C@@H](Cc2c[nH]cn2)C(=O)N[C@@H](CCC(=O)O)C(=O)N2C[C@H](O)C[C@H]2C(=O)N[C@@H](Cc2c[nH]c3ccccc23)C(=O)N[C@@H](CCN)C(=O)N[C@@H](Cc2c[nH]c3ccccc23)C(=O)N(C)[C@@H](Cc2c[nH]c3ccccc23)C(=O)N1C [Example 5160] ({CH2CO}-Y[NMeA]NPHE[Hyp]W[Dab]W[NMeW][NMeNle][Dap]CG-NH2; thioether N-14)	10 to 99.9 nM
CCCC[C@H]1C(=O)N(C)[C@@H](CCCC)C(=O)N[C@@H](CCC(=O)O)C(=O)N[C@H](C(=O)NCC(N)=O)CSCC(=O)N[C@@H](Cc2ccc(O)cc2)C(=O)N(C)[C@@H](C)C(=O)N[C@@H](CC(N)=O)C(=O)N2CCC[C@H]2C(=O)N[C@@H](CN)C(=O)N[C@@H](CC(C)C)C(=O)N2C[C@H](O)C[C@H]2C(=O)N[C@@H](Cc2c[nH]c3ccccc23)C(=O)N[C@@H](CCN)C(=O)N[C@@H](Cc2c[nH]c3ccccc23)C(=O)N1C [Example 5161] ({CH2CO}-Y[NMeA]NP[Dap]L[Hyp]W[Dab]W[NMeNle][NMeNle]ECG-NH2; thioether N-14)	1 to 9.9 nM
CCCC[C@H]1C(=O)N(C)[C@@H](CCCC)C(=O)N[C@@H](CCC(=O)O)C(=O)N[C@H](C(=O)NCC(N)=O)CSCC(=O)N[C@@H](Cc2ccc(O)cc2)C(=O)N(C)[C@@H](C)C(=O)N[C@@H](CC(=O)O)C(=O)N2CCC[C@H]2C(=O)N[C@@H](CN)C(=O)N[C@@H](CC(C)C)C(=O)N2C[C@H](O)C[C@H]2C(=O)N[C@@H](Cc2c[nH]c3ccccc23)C(=O)N[C@@H](CCN)C(=O)N[C@@H](Cc2c[nH]c3ccccc23)C(=O)N1C [Example 5162] ({CH2CO}-Y[NMeA]DP[Dap]L[Hyp]W[Dab]W[NMeNle][NMeNle]ECG-NH2; thioether N-14)	1 to 9.9 nM
CCCC[C@H]1C(=O)N(C)[C@@H](CCCC)C(=O)N[C@@H](CN)C(=O)N[C@H](C(=O)NCC(N)=O)CSCC(=O)N[C@@H](Cc2ccc(O)cc2)C(=O)N(C)[C@@H](C)C(=O)N[C@@H](CC(=O)O)C(=O)N2CCC[C@H]2C(=O)N[C@@H](Cc2c[nH]cn2)C(=O)N[C@@H](CCC(N)=O)C(=O)N2C[C@H](O)C[C@H]2C(=O)N[C@@H](Cc2c[nH]c3ccccc23)C(=O)N[C@@H](CO)C(=O)N[C@@H](Cc2cn(CC(=O)O)c3ccccc23)C(=O)N1C [Example 5163] ({CH2CO}-Y[NMeA]DPHQ[Hyp]WS[Trp(1-CH2COOH)][NMeNle][NMeNle][Dap]CG-NH2; thioether N-14)	1 to 9.9 nM
CCCC[C@H]1C(=O)N(C)[C@@H](CCCC)C(=O)N[C@@H](CCC(=O)O)C(=O)N[C@H](C(=O)NCC(N)=O)CSCC(=O)N[C@@H](Cc2ccc(O)cc2)C(=O)N(C)[C@@H](C)C(=O)N[C@@H](CC(=O)O)C(=O)N2CCC[C@H]2C(=O)N[C@@H](CN)C(=O)N[C@@H](CC(C)C)C(=O)N2C[C@H](O)C[C@H]2C(=O)N[C@@H](Cc2c[nH]c3ccccc23)C(=O)N[C@@H](CO)C(=O)N[C@@H](Cc2c[nH]c3ccccc23)C(=O)N1C [Example 5164] ({CH2CO}-Y[NMeA]DP[Dap]L[Hyp]WSW[NMeNle][NMeNle]ECG-NH2; thioether N-14)	1 to 9.9 nM
CCCC[C@H]1C(=O)N(C)[C@@H](CCCC)C(=O)N[C@@H](CCC(=O)O)C(=O)N[C@H](C(=O)NCC(N)=O)CSCC(=O)N[C@@H](Cc2ccc(O)cc2)C(=O)N(C)[C@@H](C)C(=O)N[C@@H](CC(N)=O)C(=O)N2CCC[C@H]2C(=O)N[C@@H](CN)C(=O)N[C@@H](CC(C)C)C(=O)N2C[C@H](O)C[C@H]2C(=O)N[C@@H](Cc2c[nH]c3ccccc23)C(=O)N[C@@H](CO)C(=O)N[C@@H](Cc2c[nH]c3ccccc23)C(=O)N1C [Example 5165] ({CH2CO}-Y[NMeA]NP[Dap]L[Hyp]WSW[NMeNle][NMeNle]ECG-NH2; thioether N-14)	1 to 9.9 nM
CCCC[C@H]1C(=O)N(C)[C@@H](CCCC)C(=O)N[C@@H](C)C(=O)N[C@H](C(=O)NCC(N)=O)CSCC(=O)N[C@@H](Cc2ccc(O)cc2)C(=O)N(C)[C@@H](C)C(=O)N[C@@H](CC(N)=O)C(=O)N2CCC[C@H]2C(=O)N[C@@H](CN)C(=O)N[C@@H](CC(C)C)C(=O)N2C[C@H](O)C[C@H]2C(=O)N[C@@H](Cc2c[nH]c3ccccc23)C(=O)N[C@@H](CCN)C(=O)N[C@@H](Cc2cn(CC(=O)O)c3ccccc23)C(=O)N1C [Example 5166] ({CH2CO}-Y[NMeA]NP[Dap]L[Hyp]W[Dab][Trp(1-CH2COOH)][NMeNle][NMeNle]ACG-NH2; thioether N-14)	10 to 99.9 nM
CCCC[C@H]1C(=O)N(C)[C@@H](CCCC)C(=O)N[C@@H](CCC(=O)O)C(=O)N[C@H](C(=O)NCC(N)=O)CSCC(=O)N[C@@H](Cc2ccc(O)cc2)C(=O)N(C)[C@@H](C)C(=O)N[C@@H](CC(N)=O)C(=O)N2CCC[C@H]2C(=O)N[C@@H](CO)C(=O)N[C@@H](CCC(=O)O)C(=O)N2C[C@H](O)C[C@H]2C(=O)N[C@@H](Cc2c[nH]c3ccccc23)C(=O)N[C@@H](CCN)C(=O)N[C@@H](Cc2c[nH]c3ccccc23)C(=O)N1C [Example 5167] ({CH2CO}-Y[NMeA]NPSE[Hyp]W[Dab]W[NMeNle][NMeNle]ECG-NH2; thioether N-14)	1 to 9.9 nM
CCCC[C@H]1C(=O)N(C)[C@@H](CCCC)C(=O)N[C@@H](C)C(=O)N[C@H](C(=O)NCC(N)=O)CSCC(=O)N[C@@H](Cc2ccc(O)cc2)C(=O)N(C)[C@@H](C)C(=O)N[C@@H](CC(N)=O)C(=O)N2CCC[C@H]2C(=O)N[C@@H](CN)C(=O)N[C@@H](CCC(=O)O)C(=O)N2C[C@H](O)C[C@H]2C(=O)N[C@@H](Cc2c[nH]c3ccccc23)C(=O)N[C@@H](CCN)C(=O)N[C@@H](Cc2cn(CC(=O)O)c3ccccc23)C(=O)N1C [Example 5168] ({CH2CO}-Y[NMeA]NP[Dap]E[Hyp]W[Dab][Trp(1-CH2COOH)][NMeNle][NMeNle]ACG-NH2; thioether N-14)	1 to 9.9 nM
